Read-outs that look alike come from different tables or passages of the source.
Assays:
SR (NPM-ALK) cells = assay: Growth inhibition IC50 in ALCL SR cells (CCK8/WST, 72 hours); type: cell-based; conditions: SR cells, WST, Brigatinib-based PROTAD molecules (Table 3)
Procedure: (§1) SR (NPM-ALK) and NCI-H2228 (EML4-ALK, V3) cells were purchased from ATCC. […] All Cells were cultured in RPMI1640 medium with 10% FBS and Penicillin-Streptomycin in 37° C. incubator with 5% CO2.
(§2) Cells were seeded at specific density in 96 well plates one day before treatment. […] Viable cells were measured via CCK8 reagent and IC50s were calculated via Prism Graphad. Experiments were repeated at least three times.

[1] = test system: NCI-H2228 (EML4-ALK, V3) cells; assay: Growth inhibition IC50 in lung adenocarcinoma H2228 cells (WST); type: cell-based; conditions: Homo sapiens, WST (Table 3)
Excerpt: Experiments were repeated at least three times.
Besides above, we also tested the dosage-dependent effects on the growth inhibition in H2228 cells. […] (Table 3).

Ba/F3 (EML4-ALK/L1196M) = molecular target: T1, Ba/F3 (EML4-ALK/L1196M) (Homo sapiens, UniProt Q9UM73, L1196M, cells depend on it); assay: Growth inhibition IC50 in Ba/F3 cells expressing EML4-ALK L1196M; type: cell-based
T1 construct: Q9HC35 (Echinoderm microtubule-associated protein-like 4)
Procedure: as §2

Ba/F3 (EML4-ALK/C1156Y) = molecular target: T2, Ba/F3 (EML4-ALK/C1156Y) (Homo sapiens, UniProt Q9UM73, C1156Y, cells depend on it); assay: Growth inhibition IC50 in Ba/F3 cells expressing EML4-ALK C1156Y; type: cell-based
T2 construct: Q9HC35 (Echinoderm microtubule-associated protein-like 4)
Procedure: as §2

[2] = test system: PC9 (EGFR, exon 19 del) cells; assay: Growth inhibition IC50 in EGFR mutant lung adenocarcinoma PC9 cells; type: cell-based; conditions: Homo sapiens
Procedure: as §1, §2

[3] = test system: PC9Brc1 (EGFR, exon 19 del+T790M) cells; assay: Growth inhibition IC50 in EGFR mutant lung cancer PC9Brc1 cells; type: cell-based; conditions: CTB, n ≥ 3, read-out: Half Inhibitory Concentration (IC50) Mean
Procedure: as §1, §2

[4] = test system: SW48 cell line (EGFR G719S); assay: Growth inhibition IC50 in EGFR G719S colorectal cancer cell line SW48; type: cell-based; conditions: Homo sapiens, CTG, n = 2, read-out: Half Inhibitory Concentration (IC50) Mean
Procedure: as §2

[5] = test system: U118MG cells (FIG-ROS1 gene fusion); assay: Growth inhibition IC50 in ROS1 mutant glioblastoma cell line U118MG (72 hours); type: cell-based; conditions: Homo sapiens, U-118-MG
MOLM13 cells (FLT3-ITD) = assay: Growth inhibition IC50 in FLT3-ITD AML cell line MOLM13; type: cell-based; conditions: Homo sapiens
Procedure: as §2

[6] = molecular target: T3, ALK protein in SR (NPM-ALK) cells (Homo sapiens, UniProt Q9UM73); assay: Western blot of ALK protein level (degradation, DC50), ALK phosphorylation and downstream signaling in SR cells; type: cell-based; conditions: for ALK protein degradation: 16 hours, up to 500 nM; for DC50: ALK protein degradation in SR cells
T3 construct: NPM (nucleophosmin, NPM1, P06748) fusion partner; host or cells: SR (ALCL) cells; the other entry of the earlier key: NPM1 (P06748, Nucleophosmin)
Procedure: (§3) Cancer cells were seeded in 1 ml RPMI1640 medium in 24-well plate at the density of 3×10^5 or 1.5×10^5 cells/ml. […] Then cells were washed twice with PBS and lyzed in RIPA lysis buffer with Halt Proteinase and Phosphotase inhibitor. Equal amount of proteins were loaded to run SDS-PAGE gels after denature. The gels were blotted to PVDF membrane. After incubating with first and secondary antibodies, the images were developed using SuperSignal West Pico Chemiluminescent Substrate.
(§4) DC50 (concentration required to degrade protein by half) were calculated based on the intensity from western blot, and data were analyzed via Prism GraphPad with non-linear regression.

[7] = test system: ALK positive non-small cell lung cancer; conditions: patients; cited from earlier work
Ba/F3 (EML4-ALK/WT) = molecular target: T4, Ba/F3 (EML4-ALK/WT) (Homo sapiens, UniProt Q9UM73); assay: Growth inhibition IC50 in Ba/F3 cells expressing EML4-ALK wild type; type: cell-based
T4 construct: Q9HC35 (Echinoderm microtubule-associated protein-like 4)
Procedure: as §2

[8] = molecular target: T5, ALK protein in H3122 (EML4-ALK) cells (Homo sapiens, UniProt Q9UM73); assay: Western blot of ALK protein level (degradation, DC50), ALK phosphorylation and downstream signaling in H3122 cells; type: cell-based; conditions: ALK protein degradation in H3122 cells
T5 construct: EML4 (Echinoderm microtubule-associated protein-like 4, Q9HC35) fusion partner, variant 1; host or cells: NCI-H3122 lung adenocarcinoma cells; the other entry of the earlier key: EML4 (Q9HC35, Echinoderm microtubule-associated protein-like 4)
Procedure: as §3, §4

[9] = Pharmacokinetics (PK) study in SD rat (IV, IP, PO; LC-MS/MS); type: in vivo; conditions: Sprague-Dawley, serum; for clearance: read-out: clearance rate, mean value
Procedure: SD rat were used to study the PK of ALK PROTAD compounds. ALK PROTAD compounds SIAIS164008, SIAIS164018, SIAIS164023 and SIAIS151118 were administrated into SD rat via three different routes: IV (Intravenous Injection), IP (Intraperitoneal Injection) and PO ([…]). Blood samples at different sampling time points up to 24 hours post dosing were collected from each animal and analyzed with LC-MS/MS to calculate the PK for each chemical.

[10] = test system: ALK protein in H2228 (EML4-ALK) cells; assay: Western blot of ALK protein level, ALK phosphorylation and downstream signaling in H2228 cells; type: cell-based
Procedure: Cancer cells were seeded in 1 ml RPMI1640 medium in 24-well plate at the density of 3×10^5 or 1.5×10^5 cells/ml. The next day cells were treated with different concentration of drugs for 16 hours. Then cells were washed twice with PBS and lyzed in RIPA lysis buffer with Halt Proteinase and Phosphotase inhibitor. Equal amount of proteins were loaded to run SDS-PAGE gels after denature. The gels were blotted to PVDF membrane. After incubating with first and secondary antibodies, the images were developed using SuperSignal West Pico Chemiluminescent Substrate.
The effect of Brigtinib based PROTAD molecules on the ALK protein total level were studied by western blot in ALCL SR (NPM-ALK) cell line and lung adenocarcinoma cell line H2228 and H3122 (EML4-ALK).
The effects of compounds SIAIS164008 and SIAIS164018 of the present invention on the activation of ALK mediated signaling pathways were also studied in SR cells and H2228 cells. […] The overall effect of compound of SIAIS164018 was better than that of SIAIS164008.

ALK protein in SR cells = molecular target: T6, ALK protein in SR cells (Homo sapiens, UniProt Q9UM73); assay: Block of ALK degradation by proteosome inhibitors MG132 and MLN4924 in SR cells; type: cell-based
T6 construct: NPM (nucleophosmin, NPM1, P06748) fusion partner; host or cells: SR (ALCL) cells; the other entry of the earlier key: NPM1 (P06748, Nucleophosmin)
Excerpt: To further validate the degradation effect act through proteosome mediated pathway, we also treated cells with two different proteosome inhibitors MG132 and MLN4924 to block protein degradation (FIG. 16).

[11] = U118MG cells, 72 hours, n = 2, reagent CTG, read-out: Half Inhibitory Concentration (IC50) Mean
[12] = MOLM-13, MOLM13 cells, n = 2, reagent CTG, read-out: Half Inhibitory Concentration (IC50) Mean
[13] = IP, 2 mg/kg, read-out: serum half-life (converted)
[14] = IP, 2 mg/kg, read-out: time to maximal serum peak level (Tmax)
[15] = IV, single dose 2 mg/kg, read-out: serum clearance half-life (converted)
[16] = PO, 10 mg/kg, read-out: serum half-life (converted)
[17] = PC-9, PC9 cells, CTB, n ≥ 3, read-out: Half Inhibitory Concentration (IC50) Mean

Compound	IC50 [1] [nM]	GI50 (Ba/F3 (EML4-ALK/L1196M)) [nM]	GI50 (Ba/F3 (EML4-ALK/C1156Y)) [nM]	IC50 [3] [nM]	IC50 [4] [nM]	ALK protein degradation ([6]; SR cells, western blot)	IC50 (SR (NPM-ALK) cells; 72 h) [nM]	GI50 (Ba/F3 (EML4-ALK/WT)) [nM]	IC50 [5, 11] [nM]	IC50 (MOLM13 cells (FLT3-ITD); [12]) [nM]	DC50 [6] [nM]	DC50 [8] [nM]	bioavailability ([9]; IP, 2 mg/kg) [%]	half-life [9, 13] [h]	Tmax [9, 14] [h]	clearance ([9]; IV, single dose 2 mg/kg) [mL/min/kg]	half-life [9, 15] [h]	bioavailability ([9]; PO, 10 mg/kg) [%]	Tmax ([9]; PO, 10 mg/kg, read-out: Tmax) [h]	half-life [9, 16] [h]	further results
COc1cc(N2CCC(N3CCN(C)CC3)CC2)ccc1Nc1ncc(Cl)c(Nc2ccccc2P(C)(C)=O)n1 [Brigatinib, reference compound]	45.2	35.9	36.8	246	2720	did not degrade ALK proteins															IC50 (SR (NPM-ALK) cells; 72 hours): 2.8 nM; IC50 ([2]; PC-9, read-out: Half Inhibitory Concentration (IC50) Mean): 102 nM; IC50 ([5]; 72 h): ~6800 nM; IC50 ([5]; 72 h, read-out: Half Inhibitory Concentration (IC50) Mean): 6800 nM; IC50 (MOLM13 cells (FLT3-ITD); MOLM-13): ~152 nM; IC50 (MOLM13 cells (FLT3-ITD); MOLM-13, read-out: Half Inhibitory Concentration (IC50) Mean): 152 nM; ALK protein levels, time- and dose-dependence ([6]; SR cells, 30 nM to 300 uM, 4-24 hours): did not affect ALK protein levels; disease control rate [7]: about 86%; response rate [7]: 55%
COc1cc(N2CCC(NC(=O)CCCNc3cccc4c3C(=O)N(C3CCC(=O)NC3=O)C4=O)CC2)ccc1Nc1ncc(Cl)c(Nc2ccccc2P(C)(C)=O)n1 (centres unmarked) [SIAIS151118, N-(1-(4-((5-chloro-4-((2-(dimethylphosphoryl)phenyl)amino)pyrimidin-2-yl)amino)-3-methoxyphenyl)piperidin-4-yl)-4-((2-(2,6-dioxopiperidin-3-yl)-1,3-dioxoisoindolin-4-yl)amino)butanamide]	346	146	129		1920		0.9 ± 0.2	92	4260	101	1 to 10	1 to 50	225	3.27	~1.67	~6.35	~4.73	36	3.33	4.66	IC50 (MOLM13 cells (FLT3-ITD); MOLM-13, MOLM13 cells, read-out: IC50): 101 nM
COc1cc(N2CCC(N3CCN(C(=O)CCOCCOCCNc4cccc5c4C(=O)N(C4CCC(=O)NC4=O)C5=O)CC3)CC2)ccc1Nc1ncc(Cl)c(Nc2ccccc2P(C)(C)=O)n1 (centres unmarked) [SIAIS164008, 4-((2-(2-(3-(4-(1-(4-((5-chloro-4-((2-(dimethylphosphoryl)phenyl)amino)pyrimidin-2-yl)amino)-3-methoxyphenyl)piperidin-4-yl)piperazin-1-yl)-3-oxopropoxy)ethoxy)ethyl)amino)-2-(2,6-dioxopiperidin-3-yl)isoindoline-1,3-dione]	74	376	243	1830	15200	effectively degrade ALK proteins at nano mole concentration	3.6 ± 2.1	115	3520	392	1 to 10	10 to 50	93	1.54	~0.42	~414	~0.85	14.9	2.75	3.98	IC50 [2, 17]: 265 nM; IC50 ([5]; U118MG cells, 72 hours, read-out: IC50): ~3520 nM; concentration inhibiting the phosphorylation of ALK proteins ([6]; SR cells, western blot): 0.1 nM; downstream signaling pathway (PI3K/AKT, MEK/ERK and STAT3) ([6]; SR cells, western blot): significantly inhibited; phosphorylation of ALK protein and activation of PI3K/AKT pathway [10]: inhibited
COc1cc(N2CCC(N3CCN(C(=O)CCCCCCNc4cccc5c4C(=O)N(C4CCC(=O)NC4=O)C5=O)CC3)CC2)ccc1Nc1ncc(Cl)c(Nc2ccccc2P(C)(C)=O)n1 (centres unmarked) [SIAIS164023, 4-((7-(4-(1-(4-((5-chloro-4-((2-(dimethylphosphoryl)phenyl)amino)pyrimidin-2-yl)amino)-3-methoxyphenyl)piperidin-4-yl)piperazin-1-yl)-7-oxoheptyl)amino)-2-(2,6-dioxopiperidin-3-yl)isoindoline-1,3-dione]	15.5	75.8	47.5	870			4.8 ± 2.7	33.6			0.5 to 10	1 to 10	122	1.62	~2	~88.2	~7.71	34.4	3.33	2.13	IC50 [2, 17]: 379 nM
COc1cc(N2CCC(N3CCN(C(=O)CNc4cccc5c4C(=O)N(C4CCC(=O)N(C)C4=O)C5=O)CC3)CC2)ccc1Nc1ncc(Cl)c(Nc2ccccc2P(C)(C)=O)n1 (centres unmarked) [SIAIS1210003, 4-((2-(4-(1-(4-((5-chloro-4-((2-(dimethylphosphoryl)phenyl)amino)pyrimidin-2-yl)amino)-3-methoxyphenyl)piperidin-4-yl)piperazin-1-yl)-2-oxoethyl)amino)-2-(1-methyl-2,6-dioxopiperidin-3-yl)isoindoline-1,3-dione]																					reduction of ALK protein level and its block by MG132 and MLN4924 (ALK protein in SR cells): no such effect
